Data taken from ChEMBL document CHEMBL1140018, “Synthesis and structure-activity relationship of imidazo(1,2-a)thieno(3,2-e)pyrazines as IKK-beta inhibitors” (Bioorg Med Chem Lett, 2007).
pEC50, pIC50: −log10 of the molar value. Calls of active or inactive are those of the source. No cut-off for these calls is given here.

Legend:
[1] = target: T1, Inhibitor of nuclear factor kappa-B kinase subunit beta (Homo sapiens, UniProt O14920)
T1 sequence (O14920 whole entry): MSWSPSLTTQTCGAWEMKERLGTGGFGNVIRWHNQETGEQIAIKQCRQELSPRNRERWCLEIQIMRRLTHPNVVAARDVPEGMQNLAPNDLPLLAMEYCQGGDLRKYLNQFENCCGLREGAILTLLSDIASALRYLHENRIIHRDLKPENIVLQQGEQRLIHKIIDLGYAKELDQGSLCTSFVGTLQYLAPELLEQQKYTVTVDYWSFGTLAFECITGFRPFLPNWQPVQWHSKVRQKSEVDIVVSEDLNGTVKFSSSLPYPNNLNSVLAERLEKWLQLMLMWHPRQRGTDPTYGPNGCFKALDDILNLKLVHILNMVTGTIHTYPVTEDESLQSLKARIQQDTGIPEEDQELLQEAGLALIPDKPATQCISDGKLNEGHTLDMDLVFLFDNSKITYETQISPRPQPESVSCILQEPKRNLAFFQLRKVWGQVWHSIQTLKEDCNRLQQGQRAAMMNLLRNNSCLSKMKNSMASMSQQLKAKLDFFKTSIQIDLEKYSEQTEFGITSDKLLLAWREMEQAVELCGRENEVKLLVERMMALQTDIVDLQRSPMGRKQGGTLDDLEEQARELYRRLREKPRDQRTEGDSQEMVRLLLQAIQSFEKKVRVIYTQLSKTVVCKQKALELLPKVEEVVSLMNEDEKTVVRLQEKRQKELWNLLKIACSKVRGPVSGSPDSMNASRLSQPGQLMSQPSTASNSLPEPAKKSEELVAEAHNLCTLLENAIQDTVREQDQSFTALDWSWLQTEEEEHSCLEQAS

[2] = Cytotoxicity against Jurkat cells by Alamar blue assay; conditions: human, Jurkat cells
[3] = Cmax in mouse at 10 mg/kg, po; type: ADME, organism-based; parameters: dose 10 mg/kg, route oral; conditions: in vivo
PBMC = test: Inhibition of LPS-induced TNFalpha production in PBMC; type: functional, cell-based; conditions: Homo sapiens
Liver = test: Metabolic stability in mouse liver microsomes; type: ADME, Microsome
[4] = target: T2, Inhibitor of nuclear factor kappa-B kinase subunit alpha (Homo sapiens, UniProt O15111)
T2 sequence (O15111 whole entry): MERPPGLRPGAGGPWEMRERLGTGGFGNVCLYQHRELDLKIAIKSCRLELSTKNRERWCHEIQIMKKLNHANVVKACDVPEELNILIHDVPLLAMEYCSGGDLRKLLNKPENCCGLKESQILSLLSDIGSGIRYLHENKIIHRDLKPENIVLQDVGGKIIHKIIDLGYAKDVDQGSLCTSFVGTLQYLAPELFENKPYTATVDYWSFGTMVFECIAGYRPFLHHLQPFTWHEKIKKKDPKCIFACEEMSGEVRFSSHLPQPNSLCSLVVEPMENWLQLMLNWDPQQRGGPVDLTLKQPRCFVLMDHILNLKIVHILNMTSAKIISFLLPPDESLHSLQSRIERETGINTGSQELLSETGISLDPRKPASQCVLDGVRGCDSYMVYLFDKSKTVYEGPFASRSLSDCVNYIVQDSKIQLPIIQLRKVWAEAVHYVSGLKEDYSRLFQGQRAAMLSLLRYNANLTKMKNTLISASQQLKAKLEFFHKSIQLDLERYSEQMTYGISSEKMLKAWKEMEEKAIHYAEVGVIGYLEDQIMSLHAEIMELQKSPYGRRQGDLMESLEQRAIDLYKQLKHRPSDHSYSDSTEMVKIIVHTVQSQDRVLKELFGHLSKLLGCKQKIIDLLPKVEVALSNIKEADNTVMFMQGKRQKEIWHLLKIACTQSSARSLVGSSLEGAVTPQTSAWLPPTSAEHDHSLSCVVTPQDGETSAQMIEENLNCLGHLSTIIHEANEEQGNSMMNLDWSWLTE

Jurkat = test: Inhibition of TNF-alpha-induced response in Jurkat cells; conditions: Homo sapiens
[5] = Tmax in mouse at 10 mg/kg, po; type: ADME, organism-based; parameters: dose 10 mg/kg, route oral; conditions: in vivo
Liver microsomes = test: Metabolic stability in human liver microsomes; type: ADME, Microsome
[6] = AUC(1 to 4 hrs) in mouse at 10 mg/kg, po; type: ADME, organism-based; parameters: time upper 4 hr, time lower 1 hr, dose 10 mg/kg, route oral; conditions: plasma
[7] = target: T3, Inhibitor of nuclear factor kappa-B kinase subunit epsilon (Homo sapiens) (UniProt Q14164); test: Inhibition of IKKepsilon
T3 sequence (whole entry): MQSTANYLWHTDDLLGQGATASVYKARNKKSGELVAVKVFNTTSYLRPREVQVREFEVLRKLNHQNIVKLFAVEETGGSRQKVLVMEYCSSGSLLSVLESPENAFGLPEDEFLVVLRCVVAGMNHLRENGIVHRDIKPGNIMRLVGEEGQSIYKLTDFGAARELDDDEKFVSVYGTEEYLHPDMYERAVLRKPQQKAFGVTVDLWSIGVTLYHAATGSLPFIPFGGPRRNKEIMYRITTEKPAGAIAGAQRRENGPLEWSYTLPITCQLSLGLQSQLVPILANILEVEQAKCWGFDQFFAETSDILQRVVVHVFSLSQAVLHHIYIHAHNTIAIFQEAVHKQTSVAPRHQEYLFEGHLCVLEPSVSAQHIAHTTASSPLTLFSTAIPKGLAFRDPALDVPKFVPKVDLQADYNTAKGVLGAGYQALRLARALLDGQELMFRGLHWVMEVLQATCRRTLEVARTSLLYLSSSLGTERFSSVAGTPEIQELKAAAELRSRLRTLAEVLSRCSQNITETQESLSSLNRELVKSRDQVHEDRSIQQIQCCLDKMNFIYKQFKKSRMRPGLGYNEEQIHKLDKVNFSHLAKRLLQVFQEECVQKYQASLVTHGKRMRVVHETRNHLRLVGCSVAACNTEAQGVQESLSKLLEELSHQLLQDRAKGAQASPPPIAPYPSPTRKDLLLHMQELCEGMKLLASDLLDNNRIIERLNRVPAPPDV

| Compound | pIC50 [1] | CC50 [2] | Cmax [3] | pEC50 (PBMC) | Stability (Liver) | pIC50 [4] | pEC50 (Jurkat) | Tmax [5] | Stability (Liver microsomes) | AUC(0-t) [6] | Activity [7] |
| --- | --- | --- | --- | --- | --- | --- | --- | --- | --- | --- | --- |
| CNc1nc2cc(-c3cccc(CNC(N)=O)c3)sc2n2c(C)cnc12 | 7.37 | > 100 µM | 150 nM | 7.17 | 0.221 nmol/mg/min | 6.59 | 6.47 | 30 min | 0.066 nmol/mg/min | 0.38 µM·h |  |
| CNc1nc2cc(-c3cccc(CC(N)=O)c3)sc2n2c(C)cnc12 | 8.10 | > 100 µM | 290 nM | 7.19 | 0.13 nmol/mg/min | 6.17 | 6.44 | 30 min | 0.062 nmol/mg/min | 0.63 µM·h |  |
| CNc1nc2cc(-c3cccc(CNS(N)(=O)=O)c3)sc2n2c(C)cnc12 | 8.52 | > 100 µM |  | 7.02 | 0.231 nmol/mg/min | 6.77 | 6.57 | 60 min | 0.035 nmol/mg/min |  |  |
| Cc1cnc2c(NCCO)nc3cc(-c4ccccc4)sc3n12 | 7.07 | > 100 µM |  |  |  | 5.46 | 5.14 |  |  |  |  |
| CNc1nc2cc(-c3cccc(CC(N)C(=O)O)c3)sc2n2c(C)cnc12 (configuration not stated) | 7.89 | > 100 µM |  |  |  | 5.90 | < 4.00 |  |  |  |  |
| Cc1cnc2c(NCC(N)=O)nc3cc(-c4ccccc4)sc3n12 | 6.44 | > 100 µM |  |  |  | < 4.60 | < 4.00 |  |  |  |  |
| Cc1cnc2c(NCCN)nc3cc(-c4ccccn4)sc3n12 | 6.72 | 13 µM |  |  |  | 5.91 | < 4.00 |  |  |  |  |
| CNc1nc2cc(-c3cccc(CCC(N)=O)c3)sc2n2c(C)cnc12 | 7.72 | > 100 µM |  |  |  | 5.92 | 6.09 |  |  |  |  |
| Cc1cnc2c(NCCN)nc3cc(-c4nccs4)sc3n12 | 6.64 | 5.9 µM |  |  |  | 5.95 | 4.73 |  |  |  |  |
| CCNc1nc2cc(-c3ccccc3)sc2n2c(C)cnc12 | 6.59 | > 100 µM |  |  |  | 5.70 | 5.24 |  |  |  |  |
| CNc1nc2cc(-c3cccc(CCC(=O)O)c3)sc2n2c(C)cnc12 | > 8.05 | > 100 µM |  |  |  | 5.87 | 5.30 |  |  |  |  |
| Cc1cnc2c(N)nc3cc(-c4ccccc4)sc3n12 | 6.43 | > 100 µM |  |  |  | 5.19 | 4.77 |  |  |  |  |
| Cc1cnc2c(NCCN)nc3cc(-c4ccc[nH]4)sc3n12 | 6.60 | 7.9 µM |  |  |  | 5.90 | 5.10 |  |  |  |  |
| CNc1nc2cc(-c3cccc(CCNC(N)=O)c3)sc2n2c(C)cnc12 | 7.74 | > 100 µM |  |  |  | 6.89 | 6.26 |  |  |  | inactive |
| CNc1nc2cc(C)sc2n2c(C)cnc12 | 6.31 | > 100 µM |  |  |  | 5.11 | < 4.52 |  |  |  |  |
| Cc1cnc2c(NCCNC=O)nc3cc(-c4ccccc4)sc3n12 | 6.64 | > 100 µM |  |  |  | 5.10 | 5.50 |  |  |  |  |
| Cc1cnc2c(NCCN)nc3cc(C4=NCN=C4)sc3n12 | 6.35 | 38 µM |  |  |  | 5.41 | < 4.00 |  |  |  |  |
| Cc1cnc2c(NCCN)nc3cc(-c4cn[nH]c4)sc3n12 | 8.00 | 46 µM |  |  |  | 5.84 | 5.10 |  |  |  |  |
| COc1ccccc1-c1cc2nc(NCCN)c3ncc(C)n3c2s1 | 6.55 | 3.5 µM |  |  |  | 4.89 | < 4.00 |  |  |  |  |
| Cc1cnc2c(NCCN)nc3cc(-c4ccncc4)sc3n12 | 6.57 | > 100 µM |  |  |  | 5.53 | 4.22 |  |  |  |  |
| Cc1cnc2c(NCCN)nc3cc(-c4ccccc4CO)sc3n12 | 6.89 | > 100 µM |  |  |  | 5.36 | 4.81 |  |  |  |  |
| COc1nc2cc(-c3ccccc3)sc2n2c(C)cnc12 | < 6.00 | > 100 µM |  |  |  | < 4.00 | < 4.00 |  |  |  |  |
| CNc1nc2cc(-c3cccc(CN)c3)sc2n2c(C)cnc12 | 8.07 | 19 µM |  |  |  | 6.66 | 5.23 |  |  |  | inactive |
| Cc1cnc2c(NCCN)nc3cc(-c4ccoc4)sc3n12 | 7.54 | > 100 µM |  |  |  | 6.03 | 5.34 |  |  |  |  |
| CNC(=O)CNCCc1cccc(-c2cc3nc(NC)c4ncc(C)n4c3s2)c1 | 7.29 | 50 µM |  |  |  | 5.97 | 5.72 |  |  |  |  |
| Cc1cnc2c(NCCN)nc3cc(-c4cccnc4)sc3n12 | 6.85 | 49 µM |  |  |  | 5.59 | 4.53 |  |  |  |  |
